Reference: patent publication US8652483B2, “Viral infection enhancing peptide” (priority 2010, dated 2014)
“And” between values parts separate entries of the source, which are not always exact repeats. Identical values can stand only once. No end group written: not given here.

What was measured:
[1] = Congo Red (CR) staining assay; type: physicochemical; conditions: DMSO stock freshly diluted in PBS
Description: (§1) To investigate if SW1010 (like PAP248-286) forms insoluble aggregates, in particular amyloid like material, the reactivity of a freshly prepared SW1010 peptide solution to the amyloid specific dye Thioflavin T (ThT) was analyzed. […] Further evidence that SW1010 forms amyloid like material was derived by staining with another amyloid specific dye, Congo Red (CR) (Münch et al., 2007). […] Thus, when used to enhance retroviral infection or transduction efficiencies (FIG. 1 F), the peptide of the invention provides an important advantage over SEVI amyloid fibrils that have to be generated by agitating the monomeric PAP248-286 by several hours or days on a table rotator (Münch et al., 2007; Wurm et al., 2009).
(§2) Similarly, all SW1010 derivatives were analyzed for ThT and CR reactivity.
To test if SWB is soluble in solvents other than DMSO and can form virus enhancing amyloid like material upon diluting in PBS, the inventors resuspended SWB powder in various solvents. […] Since acetic acid stocks were highly toxic for cell culture at higher concentrations, all following SWB stock solutions were then prepared by dissolving the peptide in less cytotoxic DMSO. In all subsequent experiments the concentrations of DMSO in the presence of virus or cells were lower than 1%, preferably between about 0.2 and about 1%.

[2] = system: R5 HIV-1 (CCR5 tropic HIV-1 NL4-3 92TH014-2); assay: HIV-1 infection of TZM-bl cells, R5 virus; type: cell-based; conditions: for enhancement of HIV infection: 1 ng p24 virus, 100 μg/ml peptide; for enhancers of HIV infection at the lowest viral dose: 0.01 ng p24 virus
[3] = Thioflavin T (ThT) fluorescence; type: physicochemical; conditions: DMSO stock freshly diluted in PBS
Description: as §1, §2

[4] = system: KG-1 cells; assay: Cytotoxicity of SWB; type: cell-based, human
[5] = Solubility limit in DMSO; type: physicochemical; conditions: read-out: solubility limit in DMSO (concentrations above were not completely dissolved)
[6] = system: Jurkat T cells; assay: Cytotoxicity of SWB; type: cell-based
[7] = system: CEM-M7 cells; assay: Cytotoxicity of SWB; type: cell-based
[8] = system: primary peripheral blood mononuclear cells (PBMC); assay: Cytotoxicity of SWB; type: cell-based

| Substance | Congo Red (CR) staining [1] | enhancement of HIV infection [2] | ThT fluorescence [3] | enhancers of HIV infection at the lowest viral dose [2] | other results |
| --- | --- | --- | --- | --- | --- |
| SWNL43: peptide corresponding to SW1010 of the HIV-1 clone NL4-3 (TITLPCRIKQFINMWQEVG; SW-peptide derived from peptide gp120 of HIV-1 strain MN (Gurgo et al., 1988)) | did react with CR to a lesser extend | weak or no effects | – | – | – |
| SW1014: N-terminal half of SW1010 (QIINMWQEVG; SW-peptide derived from peptide gp120 of HIV-1 strain MN (Gurgo et al., 1988)) | specific staining | weak or no effects | increases fluorescence intensities | – | – |
| SWC: variant of SW1010 of different length (KIKQIINMWQ; SW-peptide derived from peptide gp120 of HIV-1 strain MN (Gurgo et al., 1988)) | specific staining | – | – | most potent enhancers | – |
| QCKIKQIINMWQ [SWB] | – | – | – | – | toxic effects [4]: no toxic effects; solubility [5]: 25000 µM and 38000 µg/mL; toxic effects [6]: no toxic effects; toxic effects [7]: no toxic effects; toxic effects [8]: no toxic effects |
| SWCON: peptide derived from a SW1010 homologous consensus sequence of all HIV-1 M strains (TITLPCRIKQIINMWQGVG; SW-peptide derived from peptide gp120 of HIV-1 strain MN (Gurgo et al., 1988)) | specific staining | – | increases fluorescence intensities | most potent enhancers | – |
| SWE: variant of SW1010 of different length (QCKIKQIINMW; SW-peptide derived from peptide gp120 of HIV-1 strain MN (Gurgo et al., 1988)) | specific staining | – | increases fluorescence intensities | most potent enhancers | – |
